According to the NIST ThermoML archive (doi:10.1021/je800110r):

Conditions: Liquid, Vibrating tube method

CCCCCCCCCC [decane]
Conditions	mass density [kg/m3]
333.15 K, 34442 kPa	727.7
333.15 K, 34445 kPa	727.8
333.16 K, 815 kPa	699.9
333.16 K, 842 kPa	699.9
333.16 K, 881 kPa	700
333.16 K, 941 kPa	700
333.16 K, 2806 kPa	701.9
333.16 K, 2881 kPa	702
333.16 K, 2921 kPa	701.9
333.16 K, 3005 kPa	702
333.16 K, 4814 kPa	703.9
333.16 K, 4927 kPa	703.9
333.16 K, 5007 kPa	704
333.16 K, 5592 kPa	704.7
333.16 K, 5608 kPa	704.7
333.16 K, 5623 kPa	704.7
333.16 K, 5704 kPa	704.7
333.16 K, 5748 kPa	704.8
333.16 K, 5756 kPa	704.7
333.16 K, 5775 kPa	704.7
333.16 K, 5795 kPa	704.8
333.16 K, 5811 kPa	704.9
333.16 K, 5830 kPa	704.8
333.16 K, 5852 kPa	704.8
333.16 K, 5874 kPa	704.9
333.16 K, 5896 kPa	704.9
333.16 K, 5917 kPa	705
333.16 K, 5934 kPa	704.9
333.16 K, 5956 kPa	704.9
333.16 K, 5973 kPa	705
333.16 K, 6001 kPa	704.9
333.16 K, 6018 kPa	705
333.16 K, 6045 kPa	704.9
333.16 K, 6069 kPa	705.1
333.16 K, 6092 kPa	705
333.16 K, 6116 kPa	705.1
333.16 K, 6643 kPa	705.5
333.16 K, 6667 kPa	705.5
333.16 K, 6688 kPa	705.6
333.16 K, 6713 kPa	705.6
333.16 K, 6738 kPa	705.6
333.16 K, 6763 kPa	705.7
333.16 K, 6796 kPa	705.7
333.16 K, 6822 kPa	705.8
333.16 K, 6844 kPa	705.8
333.16 K, 7378 kPa	706.3
333.16 K, 7414 kPa	706.2
333.16 K, 7450 kPa	706.4
333.16 K, 7482 kPa	706.3
333.16 K, 7512 kPa	706.3
333.16 K, 7550 kPa	706.4
333.16 K, 7575 kPa	706.4
333.16 K, 7610 kPa	706.5
333.16 K, 7628 kPa	706.3
333.16 K, 7651 kPa	706.4
333.16 K, 7667 kPa	706.6
333.16 K, 7693 kPa	706.5
333.16 K, 7720 kPa	706.6
333.16 K, 7744 kPa	706.6
333.16 K, 7771 kPa	706.7
333.16 K, 7795 kPa	706.6
333.16 K, 7812 kPa	706.5
333.16 K, 7830 kPa	706.6
333.16 K, 7853 kPa	706.7
333.16 K, 7871 kPa	706.8
333.16 K, 7897 kPa	706.8
333.16 K, 7918 kPa	706.7
333.16 K, 7939 kPa	706.8
333.16 K, 7960 kPa	706.7
333.16 K, 7987 kPa	706.8
333.16 K, 8006 kPa	706.9
333.16 K, 8033 kPa	706.9
333.16 K, 8049 kPa	706.9
333.16 K, 8068 kPa	707
333.16 K, 8410 kPa	707.1
333.16 K, 8437 kPa	707.2
333.16 K, 8464 kPa	707.2
333.16 K, 8484 kPa	707.2
333.16 K, 8592 kPa	707.4
333.16 K, 8666 kPa	707.4
333.16 K, 8688 kPa	707.6
333.16 K, 8718 kPa	707.4
333.16 K, 8769 kPa	707.5
333.16 K, 8949 kPa	707.7
333.16 K, 8971 kPa	707.7
333.16 K, 9005 kPa	707.7
333.16 K, 9029 kPa	707.7
333.16 K, 9051 kPa	707.7
333.16 K, 9073 kPa	707.8
333.16 K, 9099 kPa	707.9
333.16 K, 9121 kPa	707.7
333.16 K, 9143 kPa	707.9
333.16 K, 9169 kPa	707.8
333.16 K, 9191 kPa	707.9
333.16 K, 9214 kPa	707.9
333.16 K, 9234 kPa	708
333.16 K, 9254 kPa	707.9
333.16 K, 9280 kPa	707.9
333.16 K, 9303 kPa	708.1
333.16 K, 9330 kPa	708
333.16 K, 9521 kPa	708.1
333.16 K, 9549 kPa	708.2
333.16 K, 9737 kPa	708.4
333.16 K, 9763 kPa	708.4
333.16 K, 9789 kPa	708.4
333.16 K, 9818 kPa	708.4
333.16 K, 12216 kPa	710.6
333.16 K, 12245 kPa	710.6
333.16 K, 12280 kPa	710.7
333.16 K, 12305 kPa	710.7
333.16 K, 12351 kPa	710.7
333.16 K, 12386 kPa	710.7
333.16 K, 12427 kPa	710.8
333.16 K, 12458 kPa	710.8
333.16 K, 12492 kPa	710.8
333.16 K, 12528 kPa	710.8
333.16 K, 12561 kPa	710.9
333.16 K, 12601 kPa	711
333.16 K, 12638 kPa	710.9
333.16 K, 12670 kPa	711
333.16 K, 12704 kPa	711
333.16 K, 12735 kPa	711
333.16 K, 12766 kPa	711
333.16 K, 12792 kPa	711.1
333.16 K, 12824 kPa	711.1
333.16 K, 13106 kPa	711.4
333.16 K, 13133 kPa	711.4
333.16 K, 13377 kPa	711.5
333.16 K, 13399 kPa	711.4
333.16 K, 13418 kPa	711.7
333.16 K, 13441 kPa	711.6
333.16 K, 13459 kPa	711.6
333.16 K, 13476 kPa	711.7
333.16 K, 13493 kPa	711.7
333.16 K, 13510 kPa	711.7
333.16 K, 13525 kPa	711.7
333.16 K, 13537 kPa	711.6
333.16 K, 13554 kPa	711.7
333.16 K, 13566 kPa	711.8
333.16 K, 13581 kPa	711.8
333.16 K, 13900 kPa	711.9
333.16 K, 14258 kPa	712.3
333.16 K, 14275 kPa	712.3
333.16 K, 14293 kPa	712.4
333.16 K, 14310 kPa	712.3
333.16 K, 14334 kPa	712.3
333.16 K, 14348 kPa	712.4
333.16 K, 14369 kPa	712.4
333.16 K, 14389 kPa	712.4
333.16 K, 14403 kPa	712.4
333.16 K, 14421 kPa	712.5
333.16 K, 14436 kPa	712.4
333.16 K, 14457 kPa	712.6
333.16 K, 14470 kPa	712.5
333.16 K, 14484 kPa	712.6
333.16 K, 14501 kPa	712.6
333.16 K, 14514 kPa	712.5
333.16 K, 14528 kPa	712.6
333.16 K, 14543 kPa	712.4
333.16 K, 14559 kPa	712.6
333.16 K, 14581 kPa	712.6
333.16 K, 14601 kPa	712.6
333.16 K, 14623 kPa	712.6
333.16 K, 14640 kPa	712.6
333.16 K, 14660 kPa	712.7
333.16 K, 14678 kPa	712.6
333.16 K, 14696 kPa	712.7
333.16 K, 14711 kPa	712.7
333.16 K, 14728 kPa	712.8
333.16 K, 14750 kPa	712.8
333.16 K, 14770 kPa	712.8
333.16 K, 14785 kPa	712.7
333.16 K, 14808 kPa	712.8
333.16 K, 14828 kPa	712.8
333.16 K, 14846 kPa	712.8
333.16 K, 14864 kPa	712.9
333.16 K, 14881 kPa	712.7
333.16 K, 14984 kPa	712.9
333.16 K, 15187 kPa	713
333.16 K, 15232 kPa	713.1
333.16 K, 15248 kPa	713.1
333.16 K, 15291 kPa	713.1
333.16 K, 15313 kPa	713.2
333.16 K, 15331 kPa	713.3
333.16 K, 15356 kPa	713.2
333.16 K, 15370 kPa	713.2
333.16 K, 15519 kPa	713.4
333.16 K, 15581 kPa	713.3
333.16 K, 18702 kPa	716
333.16 K, 18825 kPa	715.9
333.16 K, 21785 kPa	718.5
333.16 K, 21820 kPa	718.6
333.16 K, 25349 kPa	721.2
333.16 K, 25383 kPa	721.2
333.16 K, 25434 kPa	721.3
333.16 K, 25480 kPa	721.3
333.16 K, 25520 kPa	721.3
333.16 K, 25560 kPa	721.3
333.16 K, 25612 kPa	721.4
333.16 K, 25653 kPa	721.5
333.16 K, 26114 kPa	721.7
333.16 K, 26176 kPa	721.8
333.16 K, 26222 kPa	721.8
333.16 K, 26260 kPa	721.9
333.16 K, 26304 kPa	721.8
333.16 K, 26342 kPa	721.9
333.16 K, 27466 kPa	722.8
333.16 K, 27509 kPa	722.8
333.16 K, 27558 kPa	722.8
333.16 K, 27603 kPa	722.9
333.16 K, 27660 kPa	722.9
333.16 K, 27703 kPa	722.9
333.16 K, 27755 kPa	722.9
333.16 K, 27812 kPa	723
333.16 K, 27849 kPa	723.1
333.16 K, 27894 kPa	723.1
333.16 K, 27945 kPa	723
333.16 K, 27985 kPa	723.2
333.16 K, 28031 kPa	723.2
333.16 K, 28077 kPa	723.1
333.16 K, 28117 kPa	723.2
333.16 K, 28185 kPa	723.3
333.16 K, 28218 kPa	723.2
333.16 K, 28262 kPa	723.3
333.16 K, 28293 kPa	723.4
333.16 K, 28324 kPa	723.5
333.16 K, 28354 kPa	723.3
333.16 K, 28395 kPa	723.5
333.16 K, 28436 kPa	723.4
333.16 K, 28472 kPa	723.5
333.16 K, 28508 kPa	723.5
333.16 K, 28555 kPa	723.6
333.16 K, 28586 kPa	723.5
333.16 K, 29016 kPa	723.9
333.16 K, 29059 kPa	724
333.16 K, 29107 kPa	724
333.16 K, 29157 kPa	724.1
333.16 K, 29189 kPa	724
333.16 K, 29233 kPa	724
333.16 K, 29260 kPa	724.2
333.16 K, 29300 kPa	724.2
333.16 K, 29339 kPa	724.2
333.16 K, 29378 kPa	724.2
333.16 K, 29411 kPa	724.2
333.16 K, 29456 kPa	724.2
333.16 K, 29495 kPa	724.1
333.16 K, 29541 kPa	724.3
333.16 K, 29575 kPa	724.4
333.16 K, 29625 kPa	724.4
333.16 K, 29666 kPa	724.3
333.16 K, 29700 kPa	724.3
333.16 K, 29730 kPa	724.6
333.16 K, 29759 kPa	724.5
333.16 K, 29794 kPa	724.6
333.17 K, 25689 kPa	721.5
333.17 K, 25730 kPa	721.5
333.17 K, 25766 kPa	721.6
333.17 K, 25801 kPa	721.5
333.17 K, 25849 kPa	721.7
333.17 K, 25908 kPa	721.7
333.17 K, 25950 kPa	721.7
333.17 K, 25992 kPa	721.7
333.17 K, 26034 kPa	721.7
333.17 K, 26071 kPa	721.8
333.17 K, 28623 kPa	723.6
333.17 K, 28670 kPa	723.7
333.17 K, 28702 kPa	723.6
333.17 K, 28729 kPa	723.8
333.17 K, 28761 kPa	723.8
333.17 K, 28807 kPa	723.7
333.17 K, 28849 kPa	723.8
333.17 K, 28887 kPa	723.7
333.17 K, 28930 kPa	724
333.17 K, 28974 kPa	723.9
